According to ChEMBL document CHEMBL3132769, “Fragment growing to retain or alter the selectivity of anchored kinase hinge-binding fragments” (Medchemcomm, 2014):

Assays:
[1] = target: Cyclin-dependent kinase 2 (Homo sapiens) (UniProt P24941); assay: Inhibition of human full length CDK2 expressed in baculovirus assessed as substrate phosphorylation using fluorescence-labelled peptides as substrate at 0.06 uM after 90 mins by microfluidic peptide phosphorylation assay
[2] = target: Fibroblast growth factor receptor 1 (Homo sapiens) (UniProt P11362); assay: Inhibition of human FGFR1 catalytic domain expressed in baculovirus assessed as substrate phosphorylation using fluorescence-labelled peptides as substrate at 70 uM after 90 mins by microfluidic peptide phosphorylation assay
[3] = target: Proto-oncogene tyrosine-protein kinase Src (Homo sapiens) (UniProt P12931); assay: Inhibition of human full length SRC expressed in baculovirus assessed as substrate phosphorylation using fluorescence-labelled peptides as substrate at 70 uM after 90 mins by microfluidic peptide phosphorylation assay
[4] = target: MAP kinase-activated protein kinase 2 (Homo sapiens) (UniProt P49137); assay: Inhibition of human full length MAPKAPK2 expressed in baculovirus assessed as substrate phosphorylation using fluorescence-labelled peptides as substrate at 95 uM after 90 mins by microfluidic peptide phosphorylation assay
[5] = target: Insulin-like growth factor 1 receptor (Homo sapiens) (UniProt P08069); assay: Inhibition of human IGF1R catalytic domain expressed in baculovirus assessed as substrate phosphorylation using fluorescence-labelled peptides as substrate at 95 uM after 90 mins by microfluidic peptide phosphorylation assay
[6] = target: Platelet-derived growth factor receptor alpha (Homo sapiens) (UniProt P16234); assay: Inhibition of human PDGFR alpha catalytic domain expressed in baculovirus assessed as substrate phosphorylation using fluorescence-labelled peptides as substrate at 9 uM after 90 mins by microfluidic peptide phosphorylation assay
[7] = target: T1, MAP kinase-activated protein kinase 5 (Homo sapiens) (UniProt Q8IW41); assay: Inhibition of human full length PRAK expressed in baculovirus assessed as substrate phosphorylation using fluorescence-labelled peptides as substrate at 1000 uM after 90 mins by microfluidic peptide phosphorylation assay
T1 sequence (whole entry): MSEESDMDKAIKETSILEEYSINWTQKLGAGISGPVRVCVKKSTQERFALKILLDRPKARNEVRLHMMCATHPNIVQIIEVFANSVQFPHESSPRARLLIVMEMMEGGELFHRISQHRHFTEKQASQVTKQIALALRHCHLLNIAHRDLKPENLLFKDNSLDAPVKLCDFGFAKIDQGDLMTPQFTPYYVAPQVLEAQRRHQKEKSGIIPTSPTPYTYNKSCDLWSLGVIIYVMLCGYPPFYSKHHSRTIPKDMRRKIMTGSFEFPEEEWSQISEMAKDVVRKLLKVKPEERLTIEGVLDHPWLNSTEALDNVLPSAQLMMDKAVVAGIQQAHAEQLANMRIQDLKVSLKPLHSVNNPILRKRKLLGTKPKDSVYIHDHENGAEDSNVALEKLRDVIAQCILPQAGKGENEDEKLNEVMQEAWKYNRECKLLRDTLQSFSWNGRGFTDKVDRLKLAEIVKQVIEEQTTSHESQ

[8] = target: T2, Serine/threonine-protein kinase Nek2 (Homo sapiens) (UniProt P51955); assay: Inhibition of human full length NEK2 expressed in baculovirus assessed as substrate phosphorylation using fluorescence-labelled peptides as substrate at 2 uM after 90 mins by microfluidic peptide phosphorylation assay
T2 sequence (whole entry): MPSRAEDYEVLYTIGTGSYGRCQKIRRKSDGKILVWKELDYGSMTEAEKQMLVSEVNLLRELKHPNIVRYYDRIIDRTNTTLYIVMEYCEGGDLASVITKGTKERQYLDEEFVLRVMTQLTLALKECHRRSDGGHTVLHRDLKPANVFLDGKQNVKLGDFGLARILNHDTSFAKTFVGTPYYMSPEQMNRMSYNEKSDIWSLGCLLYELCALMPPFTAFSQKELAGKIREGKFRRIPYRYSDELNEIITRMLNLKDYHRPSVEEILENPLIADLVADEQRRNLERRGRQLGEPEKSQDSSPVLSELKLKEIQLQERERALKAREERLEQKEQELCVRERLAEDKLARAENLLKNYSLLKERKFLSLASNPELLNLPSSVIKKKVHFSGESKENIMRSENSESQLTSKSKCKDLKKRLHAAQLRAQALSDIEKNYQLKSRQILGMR

[9] = target: Epidermal growth factor receptor (Homo sapiens) (UniProt P00533); assay: Inhibition of human EGFR catalytic domain expressed in baculovirus assessed as substrate phosphorylation using fluorescence-labelled peptides as substrate at 2 uM after 90 mins by microfluidic peptide phosphorylation assay
[10] = target: T3, Serine/threonine-protein kinase DCLK2 (Homo sapiens) (UniProt Q8N568); assay: Inhibition of human full length DCAMKL2 expressed in baculovirus assessed as substrate phosphorylation using fluorescence-labelled peptides as substrate at 8 uM after 90 mins by microfluidic peptide phosphorylation assay
T3 sequence (whole entry): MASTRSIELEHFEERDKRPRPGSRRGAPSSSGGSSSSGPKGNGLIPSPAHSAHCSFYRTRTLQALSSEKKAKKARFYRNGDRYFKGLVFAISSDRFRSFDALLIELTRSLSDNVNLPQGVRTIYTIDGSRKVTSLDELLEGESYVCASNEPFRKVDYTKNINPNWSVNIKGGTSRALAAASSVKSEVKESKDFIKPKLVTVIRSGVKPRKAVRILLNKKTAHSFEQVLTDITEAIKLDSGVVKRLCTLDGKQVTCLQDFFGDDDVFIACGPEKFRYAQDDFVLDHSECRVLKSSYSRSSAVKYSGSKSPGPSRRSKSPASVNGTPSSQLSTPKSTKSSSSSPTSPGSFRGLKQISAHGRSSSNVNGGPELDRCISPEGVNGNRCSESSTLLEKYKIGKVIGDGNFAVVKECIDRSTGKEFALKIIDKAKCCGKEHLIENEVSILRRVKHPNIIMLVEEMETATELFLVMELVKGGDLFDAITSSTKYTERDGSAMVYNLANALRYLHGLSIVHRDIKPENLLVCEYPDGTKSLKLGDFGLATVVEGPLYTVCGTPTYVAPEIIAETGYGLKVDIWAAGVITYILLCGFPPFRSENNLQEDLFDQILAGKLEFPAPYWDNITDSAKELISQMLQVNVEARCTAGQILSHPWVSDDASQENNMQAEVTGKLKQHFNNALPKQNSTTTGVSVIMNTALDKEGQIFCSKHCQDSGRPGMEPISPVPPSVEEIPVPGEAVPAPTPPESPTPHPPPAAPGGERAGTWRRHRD

[11] = target: T1, MAP kinase-activated protein kinase 5 (Homo sapiens); assay: Inhibition of human full length PRAK expressed in baculovirus assessed as substrate phosphorylation using fluorescence-labelled peptides as substrate at 0.1 uM after 90 mins by microfluidic peptide phosphorylation assay
[12] = target: Mitogen-activated protein kinase 3 (Homo sapiens) (UniProt P27361); assay: Inhibition of human full length ERK1 expressed in Escherichia coli cell assessed as substrate phosphorylation using fluorescence-labelled peptides as substrate at 0.1 uM after 90 mins by microfluidic peptide phosphorylation assay
[13] = target: Mitogen-activated protein kinase 1 (Homo sapiens) (UniProt P28482); conditions: 0.1 uM
Sequence of Mitogen-activated protein kinase 1 (Homo sapiens) (P28482 whole entry): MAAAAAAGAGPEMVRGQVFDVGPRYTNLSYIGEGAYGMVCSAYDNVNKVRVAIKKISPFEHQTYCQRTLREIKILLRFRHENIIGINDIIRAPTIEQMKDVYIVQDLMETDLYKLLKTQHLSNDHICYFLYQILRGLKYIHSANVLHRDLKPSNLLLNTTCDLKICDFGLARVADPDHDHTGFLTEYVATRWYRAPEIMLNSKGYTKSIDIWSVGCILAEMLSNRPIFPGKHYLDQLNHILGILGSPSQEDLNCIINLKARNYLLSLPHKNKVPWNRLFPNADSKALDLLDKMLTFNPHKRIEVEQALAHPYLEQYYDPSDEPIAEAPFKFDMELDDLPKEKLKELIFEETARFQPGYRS
Description: Inhibition of human full length ERK2 expressed in Escherichia coli cell assessed as substrate phosphorylation using fluorescence-labelled peptides as substrate at 0.1 uM after 90 mins by microfluidic peptide phosphorylation assay

Sequence of Epidermal growth factor receptor (Homo sapiens) (P00533 whole entry, the tested form may be a part): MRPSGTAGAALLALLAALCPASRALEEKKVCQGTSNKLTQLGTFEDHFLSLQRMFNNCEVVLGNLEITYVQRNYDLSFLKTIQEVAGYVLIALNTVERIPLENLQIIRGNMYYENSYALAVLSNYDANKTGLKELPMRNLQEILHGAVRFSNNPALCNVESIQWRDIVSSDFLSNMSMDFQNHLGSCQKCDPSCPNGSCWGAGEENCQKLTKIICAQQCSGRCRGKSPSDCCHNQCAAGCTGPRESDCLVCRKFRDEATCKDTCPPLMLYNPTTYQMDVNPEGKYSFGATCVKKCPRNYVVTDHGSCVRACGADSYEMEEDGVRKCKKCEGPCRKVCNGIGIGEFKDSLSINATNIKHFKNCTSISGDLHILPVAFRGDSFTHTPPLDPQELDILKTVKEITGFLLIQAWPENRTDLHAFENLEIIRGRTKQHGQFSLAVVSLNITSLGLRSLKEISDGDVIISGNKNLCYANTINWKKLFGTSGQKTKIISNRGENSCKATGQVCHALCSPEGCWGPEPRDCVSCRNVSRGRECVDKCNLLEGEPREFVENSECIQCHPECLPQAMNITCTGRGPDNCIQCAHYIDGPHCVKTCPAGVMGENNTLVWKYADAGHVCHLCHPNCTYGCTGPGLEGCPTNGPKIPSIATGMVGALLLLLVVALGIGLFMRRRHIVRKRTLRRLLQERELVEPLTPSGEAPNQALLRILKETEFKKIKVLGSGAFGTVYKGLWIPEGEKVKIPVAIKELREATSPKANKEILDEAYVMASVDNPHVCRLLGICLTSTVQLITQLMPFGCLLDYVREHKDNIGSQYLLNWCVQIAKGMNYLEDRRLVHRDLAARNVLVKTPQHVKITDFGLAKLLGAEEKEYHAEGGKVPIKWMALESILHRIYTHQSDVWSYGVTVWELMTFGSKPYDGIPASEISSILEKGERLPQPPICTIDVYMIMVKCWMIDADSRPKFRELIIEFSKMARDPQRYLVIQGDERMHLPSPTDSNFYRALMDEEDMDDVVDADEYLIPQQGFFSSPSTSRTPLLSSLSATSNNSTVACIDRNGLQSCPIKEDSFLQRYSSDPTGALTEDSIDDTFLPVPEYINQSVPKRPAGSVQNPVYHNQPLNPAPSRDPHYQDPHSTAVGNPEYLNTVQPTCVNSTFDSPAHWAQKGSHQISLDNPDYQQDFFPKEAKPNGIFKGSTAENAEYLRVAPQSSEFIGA
Sequence of Proto-oncogene tyrosine-protein kinase Src (Homo sapiens) (P12931 2-536 limits assumed): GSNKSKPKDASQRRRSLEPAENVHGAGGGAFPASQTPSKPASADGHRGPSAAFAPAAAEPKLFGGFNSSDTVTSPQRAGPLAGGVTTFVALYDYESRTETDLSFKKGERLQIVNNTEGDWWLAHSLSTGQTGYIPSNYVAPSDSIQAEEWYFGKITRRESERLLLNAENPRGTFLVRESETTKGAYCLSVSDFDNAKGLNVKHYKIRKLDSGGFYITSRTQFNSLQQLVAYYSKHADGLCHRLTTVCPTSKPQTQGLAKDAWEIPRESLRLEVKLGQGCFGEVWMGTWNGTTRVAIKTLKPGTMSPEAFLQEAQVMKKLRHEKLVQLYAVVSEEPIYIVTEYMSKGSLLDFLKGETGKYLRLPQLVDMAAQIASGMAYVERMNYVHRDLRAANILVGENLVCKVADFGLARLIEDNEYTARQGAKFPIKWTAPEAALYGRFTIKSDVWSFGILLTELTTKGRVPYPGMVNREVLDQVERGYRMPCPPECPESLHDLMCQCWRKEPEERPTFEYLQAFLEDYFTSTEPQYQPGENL
Sequence of Platelet-derived growth factor receptor alpha (Homo sapiens) (P16234 whole entry, the tested form may be a part): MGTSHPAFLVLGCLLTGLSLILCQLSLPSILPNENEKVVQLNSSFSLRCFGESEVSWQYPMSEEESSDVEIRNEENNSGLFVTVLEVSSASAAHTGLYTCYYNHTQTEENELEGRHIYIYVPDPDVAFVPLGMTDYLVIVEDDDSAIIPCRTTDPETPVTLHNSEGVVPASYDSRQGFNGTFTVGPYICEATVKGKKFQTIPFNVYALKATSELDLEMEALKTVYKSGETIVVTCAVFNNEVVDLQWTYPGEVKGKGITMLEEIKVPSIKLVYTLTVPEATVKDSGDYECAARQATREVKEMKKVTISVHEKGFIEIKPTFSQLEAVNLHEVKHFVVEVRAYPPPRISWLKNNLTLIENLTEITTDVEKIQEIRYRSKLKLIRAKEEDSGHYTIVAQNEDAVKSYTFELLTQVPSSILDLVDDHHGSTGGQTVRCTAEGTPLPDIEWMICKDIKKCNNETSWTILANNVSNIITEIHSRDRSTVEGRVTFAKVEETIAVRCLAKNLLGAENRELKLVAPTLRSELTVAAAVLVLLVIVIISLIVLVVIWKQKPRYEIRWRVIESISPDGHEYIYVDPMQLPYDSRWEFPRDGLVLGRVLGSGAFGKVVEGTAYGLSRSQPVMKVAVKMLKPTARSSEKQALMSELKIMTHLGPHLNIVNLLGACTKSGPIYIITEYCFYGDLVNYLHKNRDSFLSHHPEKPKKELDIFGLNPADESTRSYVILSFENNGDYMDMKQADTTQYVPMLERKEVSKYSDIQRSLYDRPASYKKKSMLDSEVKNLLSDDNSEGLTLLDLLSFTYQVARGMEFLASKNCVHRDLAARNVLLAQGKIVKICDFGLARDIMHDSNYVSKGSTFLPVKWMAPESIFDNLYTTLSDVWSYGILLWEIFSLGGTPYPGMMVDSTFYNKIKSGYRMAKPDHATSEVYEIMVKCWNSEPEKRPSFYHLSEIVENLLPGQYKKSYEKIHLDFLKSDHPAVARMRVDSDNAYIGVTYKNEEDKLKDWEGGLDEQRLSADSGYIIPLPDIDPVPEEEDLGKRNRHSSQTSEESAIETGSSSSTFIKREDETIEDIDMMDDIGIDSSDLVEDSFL
Sequence of MAP kinase-activated protein kinase 2 (Homo sapiens) (P49137 whole entry, looked up, the tested form may be a part): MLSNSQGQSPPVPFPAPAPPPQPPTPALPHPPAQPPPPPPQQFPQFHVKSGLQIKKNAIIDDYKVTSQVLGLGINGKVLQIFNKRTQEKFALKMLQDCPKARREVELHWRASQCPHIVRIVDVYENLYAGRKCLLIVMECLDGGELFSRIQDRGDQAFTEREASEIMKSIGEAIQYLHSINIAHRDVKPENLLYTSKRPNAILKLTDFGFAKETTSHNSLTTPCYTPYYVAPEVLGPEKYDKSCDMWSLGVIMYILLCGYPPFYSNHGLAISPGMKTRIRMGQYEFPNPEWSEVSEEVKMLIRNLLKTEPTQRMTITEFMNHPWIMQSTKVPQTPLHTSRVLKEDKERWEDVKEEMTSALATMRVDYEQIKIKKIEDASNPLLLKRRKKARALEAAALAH
Sequence of Fibroblast growth factor receptor 1 (Homo sapiens) (P11362 22-822 limits assumed): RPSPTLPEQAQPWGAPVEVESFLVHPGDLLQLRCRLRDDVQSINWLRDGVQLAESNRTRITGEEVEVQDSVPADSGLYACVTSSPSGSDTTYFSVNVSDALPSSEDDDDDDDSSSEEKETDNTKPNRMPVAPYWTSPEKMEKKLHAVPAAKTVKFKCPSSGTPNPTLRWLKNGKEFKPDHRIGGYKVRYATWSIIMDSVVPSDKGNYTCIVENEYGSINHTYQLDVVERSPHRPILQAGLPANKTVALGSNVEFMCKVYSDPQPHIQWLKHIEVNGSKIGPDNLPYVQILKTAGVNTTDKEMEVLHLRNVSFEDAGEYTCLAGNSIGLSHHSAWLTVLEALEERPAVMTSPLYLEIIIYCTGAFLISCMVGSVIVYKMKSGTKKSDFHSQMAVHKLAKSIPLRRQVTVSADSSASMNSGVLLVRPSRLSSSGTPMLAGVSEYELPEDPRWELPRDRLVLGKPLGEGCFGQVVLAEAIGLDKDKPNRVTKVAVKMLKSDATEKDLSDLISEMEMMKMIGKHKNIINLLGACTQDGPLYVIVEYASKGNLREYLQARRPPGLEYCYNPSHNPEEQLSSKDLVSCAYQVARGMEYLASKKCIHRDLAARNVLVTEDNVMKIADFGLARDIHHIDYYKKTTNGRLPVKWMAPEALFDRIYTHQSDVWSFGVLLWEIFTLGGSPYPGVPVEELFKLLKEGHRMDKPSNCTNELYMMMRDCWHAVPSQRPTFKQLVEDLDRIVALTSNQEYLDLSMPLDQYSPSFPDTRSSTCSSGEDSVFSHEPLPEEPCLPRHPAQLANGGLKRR
Sequence of Mitogen-activated protein kinase 3 (Homo sapiens) (P27361 whole entry): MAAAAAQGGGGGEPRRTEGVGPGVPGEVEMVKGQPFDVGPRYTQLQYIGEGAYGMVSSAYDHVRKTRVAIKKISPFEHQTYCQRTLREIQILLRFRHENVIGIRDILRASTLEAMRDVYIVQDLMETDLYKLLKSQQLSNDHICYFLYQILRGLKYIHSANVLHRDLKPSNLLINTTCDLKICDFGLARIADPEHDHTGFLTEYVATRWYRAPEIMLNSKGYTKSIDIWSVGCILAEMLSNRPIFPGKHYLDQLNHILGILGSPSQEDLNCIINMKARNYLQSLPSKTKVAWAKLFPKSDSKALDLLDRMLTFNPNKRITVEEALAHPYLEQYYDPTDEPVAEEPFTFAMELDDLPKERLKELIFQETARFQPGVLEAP

SMILES: NC1(Cc2ccc(Cl)cc2)CCN(c2ncnc3[nH]ccc23)CC1
- inhibition [1]: 1%

SMILES: CNCc1ccc(-c2ncnc3[nH]cnc23)cc1
- inhibition [2]: 43%
- inhibition [3]: 37.5%

SMILES: NCCc1ccc(-c2ncnc3[nH]cnc23)cc1
- inhibition [4]: 56.5%
- inhibition [5]: 20.5%

SMILES: NCC1CN(c2ncnc3[nH]c4cnccc4c23)CCO1 (stereo not drawn)
- inhibition [6]: 23%

SMILES: c1cnc2[nH]ccc2c1
- inhibition [7]: 77%

SMILES: NC1CCN(c2ncnc3[nH]ccc23)CC1
- inhibition [8]: 0%
- inhibition [9]: 3.5%

SMILES: NCC1CCN(c2ncnc3[nH]ccc23)CC1
- inhibition [10]: 21%

SMILES: C[C@H](CN(C)C)Oc1nc(Nc2cc3cccc(Cl)c3cn2)cnc1C#N
- inhibition [11]: 3.5%
- inhibition [12]: 1%
- inhibition [13]: 0%
